Data: BigSolDB 2.1

CCOC(=O)c1ccc(O)cc1
solubility (mole fraction)
Details | 278.15 K | 283.15 K | 288.15 K | 293.15 K | 298.15 K | 303.15 K | 308.15 K | 313.15 K | 318.15 K
in acetonitrile | 0.0703 | 0.0822 | 0.0995 | 0.121 | 0.148 | 0.178 | 0.214 | 0.252 | 0.293
in water | 2.62e-05 | 3.64e-05 | 5.25e-05 | 7.52e-05 | 9.7e-05 | 0.000119 | 0.000145 | 0.000169 | 0.000192
